How the values were obtained:
[1] = biological target: T1, mu opioid receptor (MOR) (Homo sapiens, UniProt P35372); assay: PathHunter β-arrestin recruitment assay, PAM mode with EC20 endomorphin-1; assay type: cell-based; settings: for EC50: read-out: β-arr. EC50
Summary of the method: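 β-Arrestin recruitment to the receptor was tracked by chemiluminescent β-galactosidase activity from complementing fragments (ED on receptor, EA on β-arrestin). Per-compound outputs were EC50 and percent maximal response.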

[2] = biological target: T1, mu opioid receptor (MOR); assay: Hit Hunter cAMP signaling assay (adenylyl cyclase inhibition), PAM mode with EC20 endomorphin-1; assay type: cell-based
[3] = maximal response for β-arrestin recruitment
[4] = cAMP EC50, adenylyl cyclase inhibition
[5] = maximal response for adenylyl cyclase inhibition
[6] = adenylyl cyclase inhibition, read-out: cAMP EC50
[7] = maximal response, β-arrestin recruitment
[8] = maximal response, adenylyl cyclase inhibition

T1 sequence (P35372 whole entry, the tested form may be a part): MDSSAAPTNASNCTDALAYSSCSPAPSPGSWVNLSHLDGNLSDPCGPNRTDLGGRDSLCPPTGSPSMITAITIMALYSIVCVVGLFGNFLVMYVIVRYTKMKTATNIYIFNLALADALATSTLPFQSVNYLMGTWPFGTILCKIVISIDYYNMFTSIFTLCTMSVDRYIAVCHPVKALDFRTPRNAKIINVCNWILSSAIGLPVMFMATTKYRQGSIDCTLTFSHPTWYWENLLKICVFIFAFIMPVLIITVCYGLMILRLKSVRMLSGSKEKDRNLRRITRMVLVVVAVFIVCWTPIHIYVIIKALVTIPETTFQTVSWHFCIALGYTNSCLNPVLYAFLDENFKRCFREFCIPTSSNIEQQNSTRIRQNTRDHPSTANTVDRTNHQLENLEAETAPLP

| SMILES | β-arr Max. Resp. [1, 3] | EC50 ([1]; β-arrestin recruitment) | EC50 [2, 4] | cAMP Max. Resp. [2, 5] | EC50 [2, 6] | β-arr Max. Resp. [1, 7] | cAMP Max. Resp. [2, 8] |
| --- | --- | --- | --- | --- | --- | --- | --- |
| Fc1cccc(C2CCCCN2c2nc(Cl)ncc2F)n1 (stereo not drawn) [compound 133] | F (F represents a maximal response of > 60%) | > 2100 nM | > 2100 nM | E (E represents a maximal response of 40-60%) |  |  |  |
| Cc1cc(C2CCCCN2S(=O)(=O)c2ccc(Cl)cc2)ccc1F (racemic) [compound 67] | F (F represents a maximal response of > 60%) | > 2100 nM |  | E (E represents a maximal response of 40-60%) | 700 to 2100 nM |  |  |
| Fc1ccc(Cl)cc1CN1CCOCC1c1cccc(C(F)(F)F)n1 (racemic) [Compound 191] | F (F represents a maximal response of > 60%) | 700 to 2100 nM |  | E (E represents a maximal response of 40-60%) | 700 to 2100 nM |  |  |
| C#Cc1ccccc1N1CCCCC1c1ccc(F)c(Cl)c1 (stereo not drawn) [compound 463] |  | > 2100 nM |  |  | > 2100 nM | D (D represents a maximal response of < 40%) | D (D represents a maximal response of < 40%) |
| COc1ccc(C2COCCN2Cc2cc(Cl)ccc2F)cc1Br (racemic) [Compound 192] | F (F represents a maximal response of > 60%) | > 2100 nM |  | D (D represents a maximal response of < 40%) | > 2100 nM |  |  |
| Fc1cccc(C2CCCCN2c2nc(Cl)ccc2F)n1 (stereo not drawn) [compound 264] | E (E represents a maximal response of 40-60%) | > 2100 nM | 700 to 2100 nM | F (F represents a maximal response of > 60%) |  |  |  |
| Fc1ccc(C2C(F)CCCN2c2nc(Cl)ncc2F)cc1Br (stereo not drawn) [compound 214] |  | > 2100 nM |  |  | 700 to 2100 nM |  |  |
| Fc1cc(C2CCCCCN2c2nc(Cl)ncc2F)cc(C(F)(F)F)c1 (stereo not drawn) [compound 252] | F (F represents a maximal response of > 60%) | > 2100 nM |  | E (E represents a maximal response of 40-60%) | > 2100 nM |  |  |
| Fc1cnc(Cl)nc1N1CCCCC1c1cccc2cnnn12 (stereo not drawn) [compound 333] | D (D represents a maximal response of < 40%) | < 700 nM | < 700 nM | D (D represents a maximal response of < 40%) |  |  |  |
| O=S(=O)(c1ccc(Cl)cc1)N1CCCCC1c1ccc(Cl)c(Br)c1 (racemic) [compound 74] | F (F represents a maximal response of > 60%) | > 2100 nM |  | E (E represents a maximal response of 40-60%) | > 2100 nM |  |  |
| Fc1ccc(N2CCCCC2c2ccc(F)c(Cl)c2)cc1 (stereo not drawn) [compound 475] |  | > 2100 nM | > 2100 nM |  |  | F (F represents a maximal response of > 60%) | D (D represents a maximal response of < 40%) |
| Fc1cnc(Cl)nc1N1CCCCC1c1cnccc1C(F)(F)F (stereo not drawn) [compound 332] | D (D represents a maximal response of < 40%) | < 700 nM | < 700 nM | D (D represents a maximal response of < 40%) |  |  |  |
| Cc1cc(C2CCCCN2c2nc(Cl)ncc2F)ccc1F (stereo not drawn) [compound 130] | F (F represents a maximal response of > 60%) | < 700 nM | 700 to 2100 nM | E (E represents a maximal response of 40-60%) |  |  |  |
| Fc1cnc(Cl)nc1N1CCCCC1c1cncc(C(F)(F)F)n1 (stereo not drawn) [compound 274] | F (F represents a maximal response of > 60%) | > 2100 nM | 700 to 2100 nM | D (D represents a maximal response of < 40%) |  |  |  |
| Cc1ccc(N2CCCCC2c2ccc(F)c(Cl)c2)cc1 (stereo not drawn) [compound 458] |  | > 2100 nM | > 2100 nM |  |  | E (E represents a maximal response of 40-60%) | D (D represents a maximal response of < 40%) |
| Fc1ccc(C2CC=CCN2c2nc(Cl)ncc2F)cc1Br (stereo not drawn) [compound 244] | F (F represents a maximal response of > 60%) | < 700 nM |  | D (D represents a maximal response of < 40%) | < 700 nM |  |  |
| Fc1c(Cl)ncnc1N1CCCCC1c1cccc(C(F)(F)F)c1 (stereo not drawn) [compound 351] | D (D represents a maximal response of < 40%) | < 700 nM | < 700 nM | D (D represents a maximal response of < 40%) |  |  |  |
| Fc1cnc(Cl)nc1N1CCCCC1c1cccnc1F (stereo not drawn) [compound 335] | D (D represents a maximal response of < 40%) | < 700 nM | < 700 nM | D (D represents a maximal response of < 40%) |  |  |  |
| OCCNc1cccc(C2CCCCN2Cc2cc(Cl)ccc2F)n1 (stereo not drawn) [compound 141] | D (D represents a maximal response of < 40%) | > 2100 nM |  | D (D represents a maximal response of < 40%) | > 2100 nM |  |  |

| SMILES | β-arr Max. Resp. [1, 3] | EC50 ([1]; β-arrestin recruitment) | EC50 [2, 4] | cAMP Max. Resp. [2, 5] | EC50 [2, 6] | β-arr Max. Resp. [1, 7] | cAMP Max. Resp. [2, 8] |
| --- | --- | --- | --- | --- | --- | --- | --- |
| COc1ccc(C2CCCCN2S(=O)(=O)c2cccnc2Cl)cc1Br (stereo not drawn) [compound 17] | D (D represents a maximal response of < 40%) | > 2100 nM | > 2100 nM | D (D represents a maximal response of < 40%) |  |  |  |
| CC1CCN(S(=O)(=O)c2ccc(Cl)cc2)C1c1ccc(F)c(F)c1 (mixture of isomers) [Compound 97] | F (F represents a maximal response of > 60%) | 700 to 2100 nM |  | D (D represents a maximal response of < 40%) | 700 to 2100 nM |  |  |
| CC(C)(O)C(=O)N1CCN(c2nc(Cl)ncc2F)C(c2cc(F)cc(C(F)(F)F)c2)C1 (racemic) [Compound 307] | D (D represents a maximal response of < 40%) | > 2100 nM |  | F (F represents a maximal response of > 60%) | > 2100 nM |  |  |
| Fc1cnc(Cl)nc1N1CCCCC1c1ccc2ncccc2c1 (stereo not drawn) [compound 326] | D (D represents a maximal response of < 40%) | < 700 nM | < 700 nM | D (D represents a maximal response of < 40%) |  |  |  |
| CC1CCN(S(=O)(=O)c2ccc(Cl)cc2)C1c1ccc(Cl)c(Br)c1 (mixture of isomers) [Compound 99] | E (E represents a maximal response of 40-60%) | < 700 nM |  | D (D represents a maximal response of < 40%) | < 700 nM |  |  |
| Fc1ccc(C2CCCCN2c2nc(Cl)ncc2F)cc1Cl (single isomer, unassigned) [compound 10] | F (F represents a maximal response of > 60%) | < 700 nM | < 700 nM | E (E represents a maximal response of 40-60%) |  |  |  |
| FC(F)(F)c1cccc(C2CCCCN2Cc2cc(Cl)ccn2)n1 (stereo not drawn) [compound 162] | F (F represents a maximal response of > 60%) | > 2100 nM | > 2100 nM | E (E represents a maximal response of 40-60%) |  |  |  |
| Fc1cnc(Cl)nc1N1CCCCC1c1ccccc1 (stereo not drawn) [compound 362] | D (D represents a maximal response of < 40%) | < 700 nM | < 700 nM | D (D represents a maximal response of < 40%) |  |  |  |
| COc1ccc(C2CCCCCN2S(=O)(=O)c2ccc(Cl)cc2)cc1Br (racemic) [compound 84] | E (E represents a maximal response of 40-60%) | > 2100 nM |  | D (D represents a maximal response of < 40%) | > 2100 nM |  |  |
| OC1Cc2ccccc2C1N1CCCCC1c1ccc(F)c(Cl)c1 (stereo not drawn) [compound 447] |  | > 2100 nM | > 2100 nM |  |  | D (D represents a maximal response of < 40%) | D (D represents a maximal response of < 40%) |
| Fc1cnc(Cl)nc1N1CCCCC1c1ccnc(Cl)c1 (stereo not drawn) [compound 328] | D (D represents a maximal response of < 40%) | < 700 nM | < 700 nM | D (D represents a maximal response of < 40%) |  |  |  |
| FC(F)(F)c1cccc(C2CCCCN2Cc2ccnc(Cl)c2)n1 (stereo not drawn) [compound 166] | F (F represents a maximal response of > 60%) | > 2100 nM | > 2100 nM | E (E represents a maximal response of 40-60%) |  |  |  |
| Fc1ccc(C2CC(F)(F)CCN2c2nc(Cl)ncc2F)cc1Br (stereo not drawn) [compound 246] | F (F represents a maximal response of > 60%) | 700 to 2100 nM | 700 to 2100 nM | D (D represents a maximal response of < 40%) |  |  |  |
| [2H]C1(c2ccc(F)c(Br)c2)C(F)CCCN1S(=O)(=O)Cc1ccc(Cl)cc1 (stereo not drawn) [Compound 33] | F (F represents a maximal response of > 60%) |  |  | D (D represents a maximal response of < 40%) |  |  |  |
| COc1ccc(C2CCCCN2S(=O)(=O)c2ccc(Cl)cc2)cc1Br (single isomer, unassigned) [compound 5] | D (D represents a maximal response of < 40%) | > 2100 nM | > 2100 nM | D (D represents a maximal response of < 40%) |  |  |  |
| OC1CCN(c2nc(Cl)ncc2F)C(c2cccc(C(F)(F)F)c2)C1 (stereo not drawn) [compound 202] | F (F represents a maximal response of > 60%) | > 2100 nM | > 2100 nM | E (E represents a maximal response of 40-60%) |  |  |  |
| O=S(=O)(c1ccc(Cl)cc1)N1CCCCC1c1ccc(C(F)(F)F)cn1 (racemic) [compound 65] | F (F represents a maximal response of > 60%) | > 2100 nM |  | E (E represents a maximal response of 40-60%) | > 2100 nM |  |  |
| Cc1cccc(S(=O)(=O)N2CCCCC2c2cccc(C(F)(F)F)c2)c1 (stereo not drawn) [Compound 27] | F (F represents a maximal response of > 60%) | > 2100 nM |  | E (E represents a maximal response of 40-60%) | > 2100 nM |  |  |

Reference: patent US11071731B2, “Allosteric modulators of the mu opioid receptor” (Chiromics, LLC, priority 2017, dated 2021)
